Where a SMILES comes first, the peptide text is derived from it.
Tests used:
[1] = target: T1, PDK1 (Homo sapiens, UniProt O15530); assay: PDK1 activity towards synthetic peptide substrates T308tide or PDKtide; type: biochemical; design: Full length PDK1 (residues 1-556); made in house; host or cells: 293 cells; conditions: substrate T308tide
T1 sequence (O15530 1-556): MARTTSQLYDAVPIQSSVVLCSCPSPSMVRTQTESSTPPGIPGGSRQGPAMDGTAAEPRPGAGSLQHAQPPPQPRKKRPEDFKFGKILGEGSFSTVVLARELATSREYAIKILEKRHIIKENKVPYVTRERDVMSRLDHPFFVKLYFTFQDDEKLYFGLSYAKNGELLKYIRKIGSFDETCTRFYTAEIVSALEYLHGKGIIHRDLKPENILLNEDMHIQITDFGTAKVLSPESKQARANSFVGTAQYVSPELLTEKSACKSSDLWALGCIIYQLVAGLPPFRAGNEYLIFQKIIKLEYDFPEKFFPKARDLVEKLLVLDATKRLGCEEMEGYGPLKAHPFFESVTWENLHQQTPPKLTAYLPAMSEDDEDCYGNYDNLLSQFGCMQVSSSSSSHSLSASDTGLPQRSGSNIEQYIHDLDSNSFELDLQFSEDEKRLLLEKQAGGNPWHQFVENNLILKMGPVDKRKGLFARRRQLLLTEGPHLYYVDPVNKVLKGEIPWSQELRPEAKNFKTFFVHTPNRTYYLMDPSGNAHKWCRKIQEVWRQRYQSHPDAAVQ
Description: FIG. 12. PDK1 is activated and stabilised through its interaction with PIFtide. (A) GST-PDK1 activity was measured in the presence of increasing concentrations of wild type (wt) PIFtide (closed circles) or a mutant D978A PIFtide (open circles) using the synthetic peptide substrate termed T308tide, as described in Material and Methods. The data was fitted to a hyperbola using the Kaleidagraph™ software. The connection needed to obtain 50% activation of PDK1 was […] for wt-PIFtide and 1.1 μM for D978A-PIFtide. The assay shown was performed in triplicate and there was less than 5% difference between each assay. Similar results were obtained in 2 further experiments (B)—The wild type GST-PDK1 (circles) or the L155D mutant of GST-PDK1 (squares) was incubated in the presence (closed symbols) or absence (open symbols) of […] PIFtife and then for 2 min at the indicated temperatures, rapidly brought to 0° C. (see Materials and Methods), and 2 min later assayed at 30° C. for 10 min using T308tide as substrate. The activity of PDK1 obtained by incubation at 30° C. was taken as 100%. The assay shown was performed in duplicate with similar results obtained in two separate experiments.
FIG. 14. […] (A) His-PDK1 was assayed for activity using as substrate the indicated concentration of either PDKtide (open triangles) or T308tide (open circles). […]
PDK1's ability to phosphorylate Thr308 of PKBα was measured using a mutant of GST-PKBα in which Ser473 was mutated to Asp (GST-473D PKBα) in the presence of phospholipid vesicles containing sn-1-stearoyl-2-arachidonoyl-D-PtdIns (3, 4, 5)P3 [13]. […] 35 μl of the resultant mixture was spotted into P81 phosphocellulose paper (2×2 cm) and the papers washed and analysed as described previously for assays of MAP kinase. […] Control assays were carried out in parallel in which either PDK1, or peptide substrate were omitted; these values were always less than 5% of the activity measured in the presence of these reagents. […]

[2] = tested on: PDK1; conditions: ref [24], cited from earlier work
[3] = target: T1, PDK1; design: Full length PDK1 (residues 1-556); made in house; host or cells: 293 cells; conditions: ref [17]; cited from earlier work
[4] = target: T1, PDK1; assay: Phosphorylation of p70 S6K at Thr412 by PDK1 in vitro (T412-P immunoblot); type: biochemical; design: made in house; host or cells: 293 cells or E. coli; conditions: peptide 4 μM
Description: FIG. 2. PDK1 phosphorylates p70 S6K at Thr412 in vitro and this is inhibited by PIF. 0.5 μg of either wild type GST-p70 S6K-T2 (wt), T252A-GST-p70 S6K-T2 (252A) or T412A-GST-p70 S6K-T2 (412A) were incubated for 90 min at 30° C. with MgATP in the presence or absence of wild type (wt) or kinase-dead (kd) GST-PDK1 expressed in either 293 cells or bacteria in the presence (+) or absence (−) of the wild type PIF peptides (4 μM) in a final volume of 20 μl. The reactions were terminated by making the solutions 1% in SDS, the samples were subjected to SDS-polyacylamide gel electrophoresis, and the phosphorylation of p70 S6K at Thr412 was assessed by immunoblotting with the T-412P antibody. Similar results were obtained in three separate experiments.
Immunoblotting for dephosphorylated and Thr412-phosphorylated p70 S6 kinase. Cell lysates were made 1% SDS and the indicated amounts of protein were subjected to SDS/Polyacrylamide gel electrophoresis, subsequently transferred to nitrocellulose and immunoblotted using the indicated monoclonal antibody or the T412-P phospho-specific antibody (0.4 μg/ml) in 50 mM Tris/HCl pH7.5, 0.15M NaCl, 0.5% (by vol) Tween and 10% (by mass) skimmed milk. Detection was performed using the enhanced chemiluminescence reagent (Amersham Pharmacia Biotech).

less effective at inducing PDK1 activation than wild type PIFtide [1] [fold]	SMILES	reduced affinity for PDK1 compared with wild type PIFtide [2] [fold]	increase in the rate at which PDK1 phosphorylated T308tide [3] [fold]	EC50 ([1]; GST-PDK1, read-out: concentration required for half-maximal (50%) activation of PDK1) [nM]	increase in PDK1 activity towards T308tide [1]	effect on phosphorylation of p70 S6K at Thr412 by PDK1 [4]	Kd ([2]; read-out: affinity of PDK1 for PIFtide (Kd)) [nM]
8	CC[C@H](C)[C@H](NC(=O)[C@H](CCCNC(=N)N)NC(=O)[C@@H]1CCCN1C(=O)[C@H](CCC(=O)O)NC(=O)[C@@H](N)CCCNC(=N)N)C(=O)N[C@@H](CC(C)C)C(=O)N[C@@H](CO)C(=O)N[C@@H](CCC(=O)O)C(=O)N[C@@H](CCC(=O)O)C(=O)N[C@@H](CCC(=O)O)C(=O)N[C@@H](CCC(N)=O)C(=O)N[C@@H](CCC(=O)O)C(=O)N[C@@H](CCSC)C(=O)N[C@@H](Cc1ccccc1)C(=O)N[C@@H](CCCNC(=N)N)C(=O)N[C@@H](CC(=O)O)C(=O)N[C@@H](Cc1ccccc1)C(=O)N[C@@H](C)C(=O)N[C@@H](Cc1ccc(O)cc1)C(=O)N[C@@H](CC(C)C)C(=O)N[C@@H](C)C(=O)N[C@@H](CC(=O)O)C(=O)N[C@@H](Cc1c[nH]c2ccccc12)C(=O)N[C@@H](CS)C(=O)O [D978A-PIFtide] (H-REPRILSEEEQEMFRDFAYLADWC-OH; N-terminus and C-terminus assumed)	10	–	–	–	–	–
–	CC[C@H](C)[C@H](NC(=O)[C@H](Cc1ccc(O)cc1)NC(=O)[C@H](CC(=O)O)NC(=O)[C@H](Cc1ccccc1)NC(=O)[C@H](CC(=O)O)NC(=O)[C@H](CCCNC(=N)N)NC(=O)[C@H](Cc1ccccc1)NC(=O)[C@H](CCSC)NC(=O)[C@H](CCC(=O)O)NC(=O)[C@H](CCC(N)=O)NC(=O)[C@H](CCC(=O)O)NC(=O)[C@H](CCC(=O)O)NC(=O)[C@H](CCC(=O)O)NC(=O)[C@H](CO)NC(=O)[C@H](CC(C)C)NC(=O)[C@@H](NC(=O)[C@H](CCCNC(=N)N)NC(=O)[C@@H]1CCCN1C(=O)[C@H](CCC(=O)O)NC(=O)[C@@H](N)CCCNC(=N)N)[C@@H](C)CC)C(=O)N[C@@H](C)C(=O)N[C@@H](CC(=O)O)C(=O)N[C@@H](Cc1c[nH]c2ccccc12)C(=O)N[C@@H](CS)C(=O)O [PIFtide] (H-REPRILSEEEQEMFRDFDYIADWC-OH; N-terminus and C-terminus assumed)	–	4	140	up to 4 fold	prevented	~300

Source: patent US20080009025A1, “PROTEIN KINASE REGULATION” (priority 1999, published 2008)
